Source: patent US10988524B2, “Modified relaxin B chain peptides and their therapeutic use” (priority 2018, dated 2021)
Non-standard residues stand in square brackets, D forms with d. Residues, ends and D or L forms follow the SMILES beside them. 1Nal = N[C@@H](Cc1cccc2ccccc12)C(=O)O; Nle = CCCC[C@H](N)C(=O)O; Aib = CC(C)(N)C(=O)O

Biological target: T1, RXFP1 (Homo sapiens, UniProt Q9HBX9)
T1 sequence (Q9HBX9 1-757): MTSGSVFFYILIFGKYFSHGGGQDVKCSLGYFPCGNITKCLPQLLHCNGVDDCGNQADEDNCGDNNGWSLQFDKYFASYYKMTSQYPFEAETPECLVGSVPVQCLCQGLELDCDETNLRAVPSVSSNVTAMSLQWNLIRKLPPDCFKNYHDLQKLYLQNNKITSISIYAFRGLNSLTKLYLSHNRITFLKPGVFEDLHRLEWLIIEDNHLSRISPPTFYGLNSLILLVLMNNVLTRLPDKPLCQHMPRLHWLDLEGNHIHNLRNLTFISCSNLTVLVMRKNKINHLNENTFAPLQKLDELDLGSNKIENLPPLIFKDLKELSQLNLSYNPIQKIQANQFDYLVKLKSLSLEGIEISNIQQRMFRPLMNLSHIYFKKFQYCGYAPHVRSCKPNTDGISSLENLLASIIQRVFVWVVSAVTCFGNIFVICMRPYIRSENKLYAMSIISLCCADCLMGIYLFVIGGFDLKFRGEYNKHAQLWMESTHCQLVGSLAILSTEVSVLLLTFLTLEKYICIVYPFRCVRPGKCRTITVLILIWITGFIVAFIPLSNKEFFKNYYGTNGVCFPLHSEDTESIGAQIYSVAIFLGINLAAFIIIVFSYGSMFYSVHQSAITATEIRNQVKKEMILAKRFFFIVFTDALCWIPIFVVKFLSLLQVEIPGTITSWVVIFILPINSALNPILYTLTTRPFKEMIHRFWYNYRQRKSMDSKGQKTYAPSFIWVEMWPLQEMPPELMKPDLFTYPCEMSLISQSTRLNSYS
Test: OVCAR5 cAMP assay (RXFP1 agonist activity, HTRF)
Conditions: for Emax: OVCAR-5, read-out: cAMP assay in OVCAR 5 cells Emax, maximal intracellular cAMP relative to H2-relaxin in the same test occasion

Emax [%]	EC50 (cAMP assay in OVCAR 5 cells EC50 (nM), OVCAR5 cells expressing endogenous RXFP1, cAMP by HTRF, 30 min at 37° C., 1 mM IBMX) [nM]	SMILES
98	–	CC[C@H](C)[C@H](NC(=O)[C@H](CCC(N)=O)NC(=O)[C@H](C)NC(=O)[C@H](CCCNC(=N)N)NC(=O)[C@@H](NC(=O)[C@H](CCCCN)NC(=O)[C@H](CCC(=O)O)NC(=O)[C@H](CCCNC(=N)N)NC(=O)CNC(=O)[C@H](CCC(=O)O)NC(=O)[C@H](CC(C)C)NC(C)=O)C(C)C)C(=O)NC(C)(C)C(=O)NC(C)(C)C(=O)N[C@@H](CCC(=O)O)C(=O)NCC(=O)N[C@@H](CCSC)C(=O)N[C@@H](CO)C(=O)N[C@H](C(=O)N[C@@H](Cc1c[nH]c2ccccc12)C(=O)N[C@@H](CO)C(=O)NC(C)(C)C(=O)N[C@@H](CCCNC(=N)N)C(=O)N[C@@H](CCCCN)C(N)=O)[C@@H](C)O [compound 45] (Ac-LEGREKVRAQI[Aib][Aib]EGMSTWS[Aib]RK-NH2)
96	–	CCCC[C@H](NC(=O)CNC(=O)[C@H](CCC(=O)O)NC(=O)C(C)(C)NC(=O)C(C)(C)NC(=O)[C@@H](NC(=O)C(C)(C)NC(=O)[C@H](CCCCNC(C)=O)NC(=O)[C@H](CCCNC(=N)N)NC(=O)[C@@H](NC(=O)[C@H](CCCCN)NC(=O)[C@H](CCC(=O)O)NC(=O)[C@H](CCCNC(=N)N)NC(=O)CNC(=O)[C@H](CCC(=O)O)NC(=O)[C@H](CC(C)C)NC(C)=O)C(C)C)[C@@H](C)CC)C(=O)N[C@@H](CO)C(=O)N[C@H](C(=O)N[C@@H](Cc1c[nH]c2ccccc12)C(=O)N[C@@H](CO)C(=O)NC(C)(C)C(=O)N[C@@H](CCCNC(=N)N)C(=O)N[C@@H](CCCCN)C(=O)N[C@@H](CCCCN)C(N)=O)[C@@H](C)O [compound 34] (Ac-LEGREKVRK(Ac)[Aib]I[Aib][Aib]EG[Nle]STWS[Aib]RKK-NH2)
102	–	CC[C@H](C)[C@H](NC(=O)[C@H](CCC(N)=O)NC(=O)[C@H](C)NC(=O)[C@H](CCCNC(=N)N)NC(=O)[C@@H](NC(=O)[C@H](CCCCN)NC(=O)[C@H](CCC(=O)O)NC(=O)[C@H](CCCNC(=N)N)NC(=O)CNC(=O)[C@H](CCC(=O)O)NC(=O)C(C)(C)NC(C)=O)C(C)C)C(=O)NC(C)(C)C(=O)NC(C)(C)C(=O)N[C@@H](CCC(=O)O)C(=O)NCC(=O)N[C@@H](CCSC)C(=O)N[C@@H](CO)C(=O)N[C@@H](CCCCN)C(=O)N[C@@H](Cc1c[nH]c2ccccc12)C(=O)N[C@@H](CO)C(=O)N[C@@H](CCCCN)C(=O)N[C@@H](CCCNC(=N)N)C(=O)N[C@@H](CCCCN)C(=O)N[C@@H](CCCCN)C(N)=O [compound 11] (Ac-[Aib]EGREKVRAQI[Aib][Aib]EGMSKWSKRKK-NH2)
82	–	CC[C@H](C)[C@H](NC(=O)[C@H](CCC(N)=O)NC(=O)[C@H](C)NC(=O)[C@H](CCCNC(=N)N)NC(=O)[C@@H](NC(=O)[C@H](CCCCN)NC(=O)[C@H](CCC(=O)O)NC(=O)[C@H](CCCNC(=N)N)NC(=O)CNC(=O)[C@H](CCC(=O)O)NC(=O)[C@H](CC(C)C)NC(C)=O)C(C)C)C(=O)NC(C)(C)C(=O)NC(C)(C)C(=O)N[C@@H](CCC(=O)O)C(=O)NCC(=O)N[C@@H](CCSC)C(=O)N[C@@H](CO)C(=O)N[C@@H](CCCCN)C(=O)N[C@@H](Cc1c[nH]c2ccccc12)C(=O)N[C@@H](CO)C(=O)NC(C)(C)C(=O)N[C@@H](CCCNC(=N)N)C(N)=O [compound 46] (Ac-LEGREKVRAQI[Aib][Aib]EGMSKWS[Aib]R-NH2)
91	–	CCCC[C@H](NC(=O)CNC(=O)[C@H](CCC(=O)O)NC(=O)C(C)(C)NC(=O)C(C)(C)NC(=O)[C@@H](NC(=O)[C@H](C)NC(=O)[C@H](C)NC(=O)[C@H](CCCNC(=N)N)NC(=O)[C@@H](NC(=O)[C@H](CCCCN)NC(=O)[C@H](CCC(=O)O)NC(=O)[C@H](CCCNC(=N)N)NC(=O)CNC(=O)[C@H](CCC(=O)O)NC(=O)[C@H](CC(C)C)NC(=O)[C@H](CCC(=O)O)NC(C)=O)C(C)C)[C@@H](C)CC)C(=O)N[C@@H](CO)C(=O)N[C@H](C(=O)N[C@@H](Cc1c[nH]c2ccccc12)C(=O)N[C@@H](CO)C(=O)NC(C)(C)C(=O)N[C@@H](CCCNC(=N)N)C(=O)N[C@@H](CCCCN)C(=O)N[C@@H](CCCCN)C(N)=O)[C@@H](C)O [compound 48] (Ac-ELEGREKVRAAI[Aib][Aib]EG[Nle]STWS[Aib]RKK-NH2)
96	–	CCCC[C@H](NC(=O)CNC(=O)[C@H](CCC(=O)O)NC(=O)C(C)(C)NC(=O)C(C)(C)NC(=O)[C@@H](NC(=O)[C@H](CCCCNC(C)=O)NC(=O)[C@H](C)NC(=O)[C@H](CCCNC(=N)N)NC(=O)[C@@H](NC(=O)[C@H](CCCCN)NC(=O)[C@H](CCC(=O)O)NC(=O)[C@H](CCCNC(=N)N)NC(=O)CNC(=O)[C@H](CCC(=O)O)NC(=O)[C@H](CC(C)C)NC(C)=O)C(C)C)[C@@H](C)CC)C(=O)N[C@@H](CO)C(=O)N[C@H](C(=O)N[C@@H](Cc1c[nH]c2ccccc12)C(=O)N[C@@H](CO)C(=O)NC(C)(C)C(=O)N[C@@H](CCCNC(=N)N)C(=O)N[C@@H](CCCCN)C(=O)N[C@@H](CCC(N)=O)C(N)=O)[C@@H](C)O [compound 31] (Ac-LEGREKVRAK(Ac)I[Aib][Aib]EG[Nle]STWS[Aib]RKQ-NH2)
97	–	CCCC[C@H](NC(=O)CNC(=O)[C@H](CCC(=O)O)NC(=O)C(C)(C)NC(=O)C(C)(C)NC(=O)[C@@H](NC(=O)[C@H](CCC(N)=O)NC(=O)[C@H](C)NC(=O)[C@H](CCCNC(=N)N)NC(=O)[C@@H](NC(=O)[C@H](CCCCN)NC(=O)[C@H](CCC(=O)O)NC(=O)[C@H](CCCNC(=N)N)NC(=O)CNC(=O)[C@H](CCC(=O)O)NC(=O)[C@H](CC(C)C)NC(C)=O)C(C)C)[C@@H](C)CC)C(=O)N[C@@H](CO)C(=O)N[C@H](C(=O)N[C@@H](Cc1c[nH]c2ccccc12)C(=O)N[C@@H](CO)C(=O)N[C@@H](CCCCN)C(=O)N[C@@H](CCCNC(=N)N)C(=O)N[C@@H](CCCCN)C(=O)N[C@@H](CCCCN)C(N)=O)[C@@H](C)O [compound 13] (Ac-LEGREKVRAQI[Aib][Aib]EG[Nle]STWSKRKK-NH2)
104	–	CCCC[C@H](NC(=O)CNC(=O)[C@H](CCC(=O)O)NC(=O)C(C)(C)NC(=O)C(C)(C)NC(=O)[C@@H](NC(=O)[C@H](CCC(N)=O)NC(=O)[C@H](C)NC(=O)[C@H](CCCNC(=N)N)NC(=O)[C@@H](NC(=O)[C@H](CCCCN)NC(=O)[C@H](CCC(=O)O)NC(=O)[C@H](CCCNC(=N)N)NC(=O)CNC(=O)[C@H](CCC(=O)O)NC(=O)[C@H](CC(C)C)NC(C)=O)C(C)C)[C@@H](C)CC)C(=O)N[C@@H](CO)C(=O)N[C@H](C(=O)N[C@@H](Cc1cccc2ccccc12)C(=O)N[C@@H](CO)C(=O)N[C@@H](CCCCN)C(=O)N[C@@H](CCCNC(=N)N)C(N)=O)[C@@H](C)O [compound 37] (Ac-LEGREKVRAQI[Aib][Aib]EG[Nle]ST[1Nal]SKR-NH2)
91	24.4	CC[C@H](C)[C@H](NC(=O)[C@H](CCC(N)=O)NC(=O)[C@H](C)NC(=O)[C@H](CCCNC(=N)N)NC(=O)[C@@H](NC(=O)[C@H](CCCCN)NC(=O)[C@H](CCC(=O)O)NC(=O)[C@H](CCCNC(=N)N)NC(=O)CNC(=O)[C@H](CCC(=O)O)NC(=O)[C@H](CC(C)C)NC(C)=O)C(C)C)C(=O)NC(C)(C)C(=O)NC(C)(C)C(=O)N[C@@H](CCC(=O)O)C(=O)NCC(=O)N[C@@H](CCC(N)=O)C(=O)N[C@@H](CO)C(=O)N[C@H](C(=O)N[C@@H](Cc1ccccc1)C(=O)N[C@@H](CO)C(=O)NC(C)(C)C(=O)N[C@@H](CCCNC(=N)N)C(=O)N[C@@H](CCCCN)C(=O)N[C@@H](CCCCN)C(N)=O)[C@@H](C)O [compound 57] (Ac-LEGREKVRAQI[Aib][Aib]EGQSTFS[Aib]RKK-NH2)
106	–	CC[C@H](C)[C@H](NC(=O)[C@H](CCC(N)=O)NC(=O)[C@H](C)NC(=O)[C@H](CCCNC(=N)N)NC(=O)[C@@H](NC(=O)[C@H](CCCCN)NC(=O)[C@H](CCC(=O)O)NC(=O)[C@H](CCCNC(=N)N)NC(=O)CNC(=O)[C@H](CCC(=O)O)NC(=O)[C@H](CC(C)C)NC(C)=O)C(C)C)C(=O)NC(C)(C)C(=O)NC(C)(C)C(=O)N[C@@H](CCC(=O)O)C(=O)NCC(=O)N[C@@H](CCSC)C(=O)N[C@@H](CO)C(=O)N[C@H](C(=O)N[C@@H](Cc1c[nH]c2ccccc12)C(=O)N[C@@H](CO)C(=O)NC(C)(C)C(=O)N[C@@H](CCCNC(=N)N)C(N)=O)[C@@H](C)O [compound 41] (Ac-LEGREKVRAQI[Aib][Aib]EGMSTWS[Aib]R-NH2)
92	–	CCCC[C@H](NC(=O)CNC(=O)[C@H](CCC(=O)O)NC(=O)C(C)(C)NC(=O)C(C)(C)NC(=O)[C@@H](NC(=O)[C@H](CCCCNC(C)=O)NC(=O)[C@H](C)NC(=O)[C@H](CCCNC(=N)N)NC(=O)[C@@H](NC(=O)[C@H](CCCCN)NC(=O)[C@H](CCC(=O)O)NC(=O)[C@H](CCCNC(=N)N)NC(=O)CNC(=O)[C@H](CCC(=O)O)NC(=O)[C@H](CC(C)C)NC(C)=O)C(C)C)[C@@H](C)CC)C(=O)N[C@@H](CO)C(=O)N[C@H](C(=O)N[C@@H](Cc1c[nH]c2ccccc12)C(=O)N[C@@H](CO)C(=O)NC(C)(C)C(=O)N[C@@H](CCCNC(=N)N)C(=O)N[C@@H](CCCCNC(C)=O)C(=O)N[C@@H](CCCCNC(C)=O)C(N)=O)[C@@H](C)O [compound 28] (Ac-LEGREKVRAK(Ac)I[Aib][Aib]EG[Nle]STWS[Aib]RK(Ac)K(Ac)-NH2)
